Data: patent US20250304620A1, “ANTIMICROBIAL PEPTIDE AND APPLICATION THEREOF” (priority 2023, published 2025)
Converted amounts (≈) assume the structure as drawn. Non-standard residues stand in square brackets, D forms with d. Residues, ends and D or L forms follow the SMILES beside them. d2Nal = N[C@H](Cc1ccc2ccccc2c1)C(=O)O

What was measured:
[1] = system: Staphylococcus aureus (NRS 384); assay: microbe, parasite or virus in culture; assay type: cell-based; details: NRS 384
Method in brief: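 CLSI broth microdilution with serial twofold dilutions gave MICs against S. aureus NRS 384, with 5 parallel replicates. Levofloxacin and the AMP Cbf-K16 served as positive controls.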

[2] = system: Bacillus subtilis ATCC 6633; assay type: cell-based
Method in brief: (§1)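 Following CLSI standards, peptides are serially diluted twofold in a microdilution setup against each strain. The MIC is then recorded. The whole experiment is run five times in parallel.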

[3] = system: Candida albicans ATCC MYA-2876; assay type: cell-based
Method in brief: as §1

[4] = system: Candida glabrata ATCC 15126; assay type: cell-based
Method in brief: as §1

Candida krusei ATCC 6258 = assay type: cell-based
Method in brief: as §1

[5] = system: Candida tropicalis ATCC 750; assay type: cell-based
Method in brief: as §1

Candida utilis ATCC 9950 = assay type: cell-based
Method in brief: as §1

[6] = system: Corynebacterium ATCC 7715; assay type: cell-based
Method in brief: as §1

Enterococcus ATCC 29212 = assay type: cell-based
Method in brief: as §1

[7] = system: Escherichia coli ATCC 25922; assay type: cell-based
Method in brief: as §1

[8] = system: Klebsiella pneumoniae ATCC 700603; assay type: cell-based
Method in brief: as §1

[9] = system: Pseudomonas aeruginosa ATCC 27853; assay type: cell-based
Method in brief: as §1

[10] = system: Salmonella typhimurium ATCC 14028; assay type: cell-based
Method in brief: as §1

[11] = system: Serratia marcescens ATCC 29021; assay type: cell-based
Method in brief: as §1

[12] = system: Staphylococcus aureus ATCC 25923; assay type: cell-based
Method in brief: as §1

[13] = system: Trichophyton ATCC MYA-4438; assay type: cell-based
Method in brief: as §1

[14] = system: Shigella flexneri ATCC 12022; assay: MIC against clinically common bacterial strain; assay type: cell-based
Method in brief: as §1

[15] = system: Methicillin-resistant Staphylococcus aureus (MRSA); assay type: cell-based; details: Methicillin-resistant
Method in brief: (§2)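 Antimicrobial peptide susceptibility is measured against clinically isolated resistant bacteria using the CLSI microdilution method.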

[16] = system: carbapenem-resistant Escherichia coli (CREC); assay type: cell-based; details: carbapenem-resistant (CREC)
Method in brief: as §2

[17] = system: carbapenem-resistant Klebsiella pneumoniae (CRKP); assay type: cell-based; details: carbapenem-resistant (CRKP)
Method in brief: as §2

[18] = system: carbapenem-resistant Pseudomonas aeruginosa (CRPA); assay type: cell-based; details: carbapenem-resistant (CRPA)
Method in brief: as §2

[19] = system: vancomycin-resistant Enterococcus (VRE); assay type: cell-based
Method in brief: as §2

[20] = system: Staphylococcus aureus (NRS 384); details: NRS 384, 3 h
Experimental: Trypsin (250 U/mg, pH=8.0) and AMPs (LV-1 to LV-30) were mixed in a ratio of 1:10 (w/w) and added to a reaction buffer (0.2 M sodium phosphate, 1 mM CaCl2), pH 7.5), and then incubated at 37° C. for 3 h.

[21] = Serum stability assay (residual level by RP-HPLC); details: human

| SMILES | MIC against Staphylococcus aureus (NRS 384) [1] [µg/mL] | MIC Bacillus subtilis ATCC 6633 [2] [µg/mL] | MIC Candida albicans ATCC MYA-2876 [3] [µg/mL] | MIC Candida glabrata ATCC 15126 [4] [µg/mL] | MIC Candida krusei ATCC 6258 (Candida krusei ATCC 6258) [µg/mL] | MIC Candida tropicalis ATCC 750 [5] [µg/mL] | MIC Candida utilis ATCC 9950 (Candida utilis ATCC 9950) [µg/mL] | MIC Corynebacterium ATCC 7715 [6] [µg/mL] | MIC Enterococcus ATCC 29212 (Enterococcus ATCC 29212) [µg/mL] | MIC Escherichia coli ATCC 25922 [7] [µg/mL] | MIC Klebsiella pneumoniae ATCC 700603 [8] [µg/mL] | MIC Pseudomonas aeruginosa ATCC 27853 [9] [µg/mL] | MIC Salmonella typhimurium ATCC 14028 [10] [µg/mL] | MIC Serratia marcescens ATCC 29021 [11] [µg/mL] | MIC Staphylococcus aureus ATCC 25923 [12] [µg/mL] | MIC Trichophyton ATCC MYA-4438 [13] [µg/mL] | MIC Shigella flexneri ATCC 12022 [14] [µg/mL] | MIC MRSA [15] [µg/mL] | MIC CREC [16] [µg/mL] | MIC CRKP [17] [µg/mL] | other results |
| --- | --- | --- | --- | --- | --- | --- | --- | --- | --- | --- | --- | --- | --- | --- | --- | --- | --- | --- | --- | --- | --- |
| CC(=O)N[C@H](CCCNC(=N)N)C(=O)N[C@H](CCCCN)C(=O)N[C@H](CC(C)C)C(=O)N[C@H](CC(C)C)C(=O)N[C@H](Cc1ccc2ccccc2c1)C(=O)N[C@H](CCCCN)C(=O)N[C@H](CC(C)C)C(=O)N[C@H](CCCCN)C(=O)N[C@H](Cc1ccc2ccccc2c1)C(=O)N[C@H](CCCCN)C(=O)N[C@H](CCCNC(=N)N)C(N)=O [LV-18] (Ac-[dR][dK][dL][dL][d2Nal][dK][dL][dK][d2Nal][dK][dR]-NH2) | 1 (≈ 0.618 µM) | 4 (≈ 2.47 µM) | 4 (≈ 2.47 µM) | 4 (≈ 2.47 µM) | 4 (≈ 2.47 µM) | 2 (≈ 1.24 µM) | 8 (≈ 4.94 µM) | 2 (≈ 1.24 µM) | 4 (≈ 2.47 µM) | 1 (≈ 0.618 µM) | 2 (≈ 1.24 µM) | 1 (≈ 0.618 µM) | 4 (≈ 2.47 µM) | 4 (≈ 2.47 µM) | 2 (≈ 1.24 µM) | 16 (≈ 9.89 µM) | 8 (≈ 4.94 µM) | 4 (≈ 2.47 µM) | 2 (≈ 1.24 µM) | 2 (≈ 1.24 µM) | MIC CRPA [18]: 4 µg/mL (≈ 2.47 µM); MIC VRE [19]: 8 µg/mL (≈ 4.94 µM); Trypsin MIC [20]: 1 µg/mL; remaining at 12 h, 0.91 mg/mL [21]: 97.6% |
| CC(=O)N[C@H](CCCCN)C(=O)N[C@H](CCCCN)C(=O)N[C@H](CC(C)C)C(=O)N[C@H](CC(C)C)C(=O)N[C@H](Cc1ccc2ccccc2c1)C(=O)N[C@H](CCCNC(=N)N)C(=O)N[C@H](CC(C)C)C(=O)N[C@H](CCCCN)C(=O)N[C@H](Cc1ccc2ccccc2c1)C(=O)N[C@H](CCCNC(=N)N)C(=O)N[C@H](CCCCN)C(N)=O [LV-19] (Ac-[dK][dK][dL][dL][d2Nal][dR][dL][dK][d2Nal][dR][dK]-NH2) | 1 (≈ 0.618 µM) | 8 (≈ 4.94 µM) | 8 (≈ 4.94 µM) | 8 (≈ 4.94 µM) | 16 (≈ 9.89 µM) | 4 (≈ 2.47 µM) | 8 (≈ 4.94 µM) | 2 (≈ 1.24 µM) | 2 (≈ 1.24 µM) | 1 (≈ 0.618 µM) | 2 (≈ 1.24 µM) | 1 (≈ 0.618 µM) | 2 (≈ 1.24 µM) | 8 (≈ 4.94 µM) | 1 (≈ 0.618 µM) | 8 (≈ 4.94 µM) | 4 (≈ 2.47 µM) | 4 (≈ 2.47 µM) | 8 (≈ 4.94 µM) | 4 (≈ 2.47 µM) | MIC CRPA [18]: 2 µg/mL (≈ 1.24 µM); MIC VRE [19]: 4 µg/mL (≈ 2.47 µM); Trypsin MIC [20]: 1 µg/mL; remaining at 12 h, 0.91 mg/mL [21]: 98.1% |
| CC(=O)N[C@H](CCCNC(=N)N)C(=O)N[C@H](CCCCN)C(=O)N[C@H](CC(C)C)C(=O)N[C@H](CC(C)C)C(=O)N[C@H](Cc1ccc2ccccc2c1)C(=O)N[C@H](CCCNC(=N)N)C(=O)N[C@H](CC(C)C)C(=O)N[C@H](CCCCN)C(=O)N[C@H](Cc1ccc2ccccc2c1)C(=O)N[C@H](CCCNC(=N)N)C(=O)N[C@H](CCCCN)C(N)=O [LV-20] (Ac-[dR][dK][dL][dL][d2Nal][dR][dL][dK][d2Nal][dR][dK]-NH2) | 1 (≈ 0.607 µM) | 2 (≈ 1.21 µM) | 4 (≈ 2.43 µM) | 8 (≈ 4.86 µM) | 8 (≈ 4.86 µM) | 8 (≈ 4.86 µM) | 8 (≈ 4.86 µM) | 2 (≈ 1.21 µM) | 4 (≈ 2.43 µM) | 1 (≈ 0.607 µM) | 2 (≈ 1.21 µM) | 1 (≈ 0.607 µM) | 1 (≈ 0.607 µM) | 2 (≈ 1.21 µM) | 1 (≈ 0.607 µM) | 8 (≈ 4.86 µM) | 4 (≈ 2.43 µM) | 2 (≈ 1.21 µM) | 8 (≈ 4.86 µM) | 8 (≈ 4.86 µM) | MIC CRPA [18]: 4 µg/mL (≈ 2.43 µM); MIC VRE [19]: 4 µg/mL (≈ 2.43 µM); Trypsin MIC [20]: 1 µg/mL; remaining at 12 h, 0.91 mg/mL [21]: 98.2% |
| CC(=O)N[C@H](CCCNC(=N)N)C(=O)N[C@H](CCCNC(=N)N)C(=O)N[C@H](CC(C)C)C(=O)N[C@H](CC(C)C)C(=O)N[C@H](Cc1ccc2ccccc2c1)C(=O)N[C@H](CCCNC(=N)N)C(=O)N[C@H](CC(C)C)C(=O)N[C@H](CCCCN)C(=O)N[C@H](Cc1ccc2ccccc2c1)C(=O)N[C@H](CCCNC(=N)N)C(=O)N[C@H](CCCCN)C(N)=O [LV-21] (Ac-[dR][dR][dL][dL][d2Nal][dR][dL][dK][d2Nal][dR][dK]-NH2) | 1 (≈ 0.597 µM) | 2 (≈ 1.19 µM) | 8 (≈ 4.78 µM) | 16 (≈ 9.56 µM) | 4 (≈ 2.39 µM) | 8 (≈ 4.78 µM) | 8 (≈ 4.78 µM) | 4 (≈ 2.39 µM) | 4 (≈ 2.39 µM) | 2 (≈ 1.19 µM) | 4 (≈ 2.39 µM) | 2 (≈ 1.19 µM) | 2 (≈ 1.19 µM) | 4 (≈ 2.39 µM) | 1 (≈ 0.597 µM) | 4 (≈ 2.39 µM) | 2 (≈ 1.19 µM) | 4 (≈ 2.39 µM) | 2 (≈ 1.19 µM) | 2 (≈ 1.19 µM) | MIC CRPA [18]: 4 µg/mL (≈ 2.39 µM); MIC VRE [19]: 2 µg/mL (≈ 1.19 µM); Trypsin MIC [20]: 1 µg/mL; remaining at 12 h, 0.91 mg/mL [21]: 97.9% |
| CC(=O)N[C@H](CCCNC(=N)N)C(=O)N[C@H](CCCCN)C(=O)N[C@H](CC(C)C)C(=O)N[C@H](CC(C)C)C(=O)N[C@H](Cc1ccc2ccccc2c1)C(=O)N[C@H](CCCNC(=N)N)C(=O)N[C@H](CC(C)C)C(=O)N[C@H](CCCCN)C(=O)N[C@H](Cc1ccc2ccccc2c1)C(=O)N[C@H](CCCNC(=N)N)C(=O)N[C@H](CCCNC(=N)N)C(N)=O [LV-22] (Ac-[dR][dK][dL][dL][d2Nal][dR][dL][dK][d2Nal][dR][dR]-NH2) | 1 (≈ 0.597 µM) | 4 (≈ 2.39 µM) | 8 (≈ 4.78 µM) | 8 (≈ 4.78 µM) | 8 (≈ 4.78 µM) | 8 (≈ 4.78 µM) | 16 (≈ 9.56 µM) | 4 (≈ 2.39 µM) | 2 (≈ 1.19 µM) | 2 (≈ 1.19 µM) | 2 (≈ 1.19 µM) | 2 (≈ 1.19 µM) | 4 (≈ 2.39 µM) | 4 (≈ 2.39 µM) | 1 (≈ 0.597 µM) | 4 (≈ 2.39 µM) | 4 (≈ 2.39 µM) | 2 (≈ 1.19 µM) | 8 (≈ 4.78 µM) | 2 (≈ 1.19 µM) | MIC CRPA [18]: 8 µg/mL (≈ 4.78 µM); MIC VRE [19]: 4 µg/mL (≈ 2.39 µM); Trypsin MIC [20]: 1 µg/mL; remaining at 12 h, 0.91 mg/mL [21]: 97.2% |
